# Assay results from paper PMC3175280 (Neurochemistry international, 2011).
# Values joined by “and” are separate entries in the source; they are usually repeats but may differ in a detail not shown here. Equal entries are not always repeated.
# Experiments:
# [1] = target: T1, wt α1β1γ2S GABAA receptors (Rattus norvegicus, UniProt P15431+P18508+P62813); assay: Steroid activation; type: cell-based
# [2] = target: T2, S299Cα1β1γ2S GABAA receptors (Rattus norvegicus, UniProt P15431+P18508+P62813, S325C); assay: Steroid potentiation of submaximal GABA current, S299C receptors; type: cell-based; conditions: not shown for THDOC
# [3] = target: T1, wt α1β1γ2S GABAA receptors; type: cell-based; conditions: 0.5 μM ALLO, about EC30, n=3
# [4] = target: T2, S299Cα1β1γ2S GABAA receptors; assay: Extreme low dose assay; type: cell-based; conditions: for co-application current, scaled to the added currents = 1 / added separate currents, scaled: n=4; for difference between co-applied and added currents: not significant
# [5] = target: T2, S299Cα1β1γ2S GABAA receptors; assay: Steroid activation; type: cell-based; conditions: for current passed, % of 1 mM GABA current: representative trace; for first peak maximal current (curve fit), % of maximal (1 mM GABA) current: first (low concentration) peak of the bimodal dose response; for second peak maximal current (curve fit), % of maximal (1 mM GABA) current: second (high concentration) peak of the bimodal dose response
# [6] = target: T2, S299Cα1β1γ2S GABAA receptors; assay: Substituted cysteine accessibility; type: cell-based; conditions: for reduction of subsequent ALLO induced current: 0.5 mM pCMBS added with 5 nM ALLO; for inhibition of subsequent ALLO induced current: 0.5 mM pCMBS added with 100 nM ALLO
# [7] = target: T2, S299Cα1β1γ2S GABAA receptors; assay: Blocking ALLO-induced current with picrotoxin; type: cell-based; conditions: 1 mM PTN co-applied with 5 nM ALLO
# [8] = tested on: α1S299C containing GABAA receptors; conditions: ref Williams and Akabas 1999, 2000, 2002; cited from earlier work
# [9] = target: T2, S299Cα1β1γ2S GABAA receptors; assay: Blocking ALLO-induced current with isoallopregnanolone; type: cell-based
# [10] = target: T1, wt α1β1γ2S GABAA receptors; assay: SCAM with pCMBS on ALLO-induced currents, wt receptors; type: cell-based; conditions: pCMBS added in any concentration of ALLO (not shown)
# [11] = target: T2, S299Cα1β1γ2S GABAA receptors; conditions: pCMBS added in the presence of GABA; ref Williams and Akabas 1999; cited from earlier work
# [12] = target: T2, S299Cα1β1γ2S GABAA receptors; assay: P4S dose response curve, S299C receptors; type: cell-based
# [13] = target: wild type α1β1γ2S GABAA receptors (Rattus norvegicus, UniProt P15431+P18508+P62813); assay: P4S dose response curve, wild type receptors; type: cell-based
# [14] = tested on: α1S299C containing GABAA receptors; conditions: preliminary dose response (not shown)
# T2 sequence (P62813 28-455 S325C): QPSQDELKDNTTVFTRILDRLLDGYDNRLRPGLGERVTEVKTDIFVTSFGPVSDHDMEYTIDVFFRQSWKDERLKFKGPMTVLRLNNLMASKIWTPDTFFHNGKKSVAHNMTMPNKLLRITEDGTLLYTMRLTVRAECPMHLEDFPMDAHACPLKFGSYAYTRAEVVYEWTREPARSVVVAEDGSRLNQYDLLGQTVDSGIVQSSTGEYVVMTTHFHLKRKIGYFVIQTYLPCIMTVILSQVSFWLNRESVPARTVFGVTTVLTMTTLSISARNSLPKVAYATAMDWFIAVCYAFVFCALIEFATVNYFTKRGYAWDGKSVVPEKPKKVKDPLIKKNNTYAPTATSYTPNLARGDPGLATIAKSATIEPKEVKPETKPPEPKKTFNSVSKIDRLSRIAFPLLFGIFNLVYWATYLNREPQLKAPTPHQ
# T2 sequence (P15431 26-474): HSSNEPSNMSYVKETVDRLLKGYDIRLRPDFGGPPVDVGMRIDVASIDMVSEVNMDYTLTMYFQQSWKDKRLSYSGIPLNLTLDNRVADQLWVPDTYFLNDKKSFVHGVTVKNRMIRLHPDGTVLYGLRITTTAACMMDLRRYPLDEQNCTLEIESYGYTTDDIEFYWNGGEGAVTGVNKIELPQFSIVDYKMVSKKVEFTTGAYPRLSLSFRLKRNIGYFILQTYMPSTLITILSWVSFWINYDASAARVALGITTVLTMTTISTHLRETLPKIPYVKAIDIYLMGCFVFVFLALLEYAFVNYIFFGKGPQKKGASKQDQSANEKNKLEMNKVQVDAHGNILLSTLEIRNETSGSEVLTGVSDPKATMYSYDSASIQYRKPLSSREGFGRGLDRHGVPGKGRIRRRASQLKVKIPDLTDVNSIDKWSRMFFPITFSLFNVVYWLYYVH
# T2 sequence (P18508 39-466): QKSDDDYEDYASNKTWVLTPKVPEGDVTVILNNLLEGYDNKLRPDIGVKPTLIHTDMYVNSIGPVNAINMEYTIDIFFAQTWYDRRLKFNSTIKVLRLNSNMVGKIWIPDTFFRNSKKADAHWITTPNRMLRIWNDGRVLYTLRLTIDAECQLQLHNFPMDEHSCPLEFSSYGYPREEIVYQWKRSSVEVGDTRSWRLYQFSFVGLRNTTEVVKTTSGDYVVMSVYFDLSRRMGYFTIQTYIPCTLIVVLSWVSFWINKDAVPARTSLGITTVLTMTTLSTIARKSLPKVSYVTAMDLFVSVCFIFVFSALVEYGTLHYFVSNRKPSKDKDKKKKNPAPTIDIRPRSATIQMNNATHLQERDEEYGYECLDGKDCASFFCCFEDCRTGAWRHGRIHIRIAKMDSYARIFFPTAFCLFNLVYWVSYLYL
# T1 sequence (P62813 28-455): as the sequence (P62813 28-455 S325C) above, with C298S counted along it
# T1 sequence (P15431 26-474): as the sequence (P15431 26-474) above
# T1 sequence (P18508 39-466): as the sequence (P18508 39-466) above
# Chain of wild type α1β1γ2S GABAA receptors (P62813 28-455): as the sequence (P62813 28-455 S325C) above, with C298S counted along it
# Chain of wild type α1β1γ2S GABAA receptors (P15431 26-474): as the sequence (P15431 26-474) above
# Chain of wild type α1β1γ2S GABAA receptors (P18508 39-466): as the sequence (P18508 39-466) above
compound,measurement,setting,value
"CC(=O)[C@H]1CC[C@H]2[C@@H]3CC[C@H]4C[C@H](O)CC[C@]4(C)[C@H]3CC[C@]12C [ALLO, 3α-hydroxy-5α-pregnan-20-one]",EC50,[1],870 nM
same,"maximal steroid induced current, % of 1 mM GABA current","[1]; wt receptors, steroid alone, −60 mV",about 43 ± 15%
same,potentiation of submaximal GABA current,[2],no significant potentiation
same,"potentiation, percent increase of 1 μM GABA current",[3],120 ± 28%
same,"co-application current, scaled to the added currents = 1",[4]; 100 pM ALLO + 100 nM GABA co-applied,1.21 ± 0.45
same,"added separate currents, scaled",[4]; 100 pM ALLO alone plus 100 nM GABA alone,1.0 ± 0.35
same,"co-application current, scaled to the added currents = 1",[4]; 5 nM ALLO + 100 nM GABA co-applied,1.27 ± 0.39
same,"added separate currents, scaled",[4]; 5 nM ALLO alone plus 100 nM GABA alone,1.0 ± 0.21
same,difference between co-applied and added currents,[4]; 100 nM GABA and 100 pM ALLO,20%
same,difference between co-applied and added currents,[4]; 100 nM GABA and 5 nM ALLO,27%
same,"inward current, % of 1 mM GABA current","[5]; 50 pM steroid, no GABA, n=4",6 ± 4%
same,"current passed, % of 1 mM GABA current",[5]; 5 nM steroid,approximately 50%
same,"current passed, % of 1 mM GABA current",[5]; 100 nM steroid,approximately 50%
same,EC50,"[5]; EC50, first activation curve, first plateau to valley fit as a separate curve",0.59 nM
same,EC50,"[5]; EC50, second activation curve, second plateau to valley fit as a separate curve",70 nM
same,"first peak maximal current (curve fit), % of maximal (1 mM GABA) current",[5],58 ± 0.25%
same,"second peak maximal current (curve fit), % of maximal (1 mM GABA) current",[5],42 ± 0.26%
"C[C@]12CC[C@@H](O)C[C@@H]1CC[C@@H]1[C@@H]2CC[C@]2(C)[C@@H](C(=O)CO)CC[C@@H]12 [THDOC, 3α,21-hydroxy-5α-pregnan-20-one]",potentiation of submaximal GABA current,[2],no significant potentiation
same,"current passed, % of 1 mM GABA current",[5]; 1 nM steroid,more than 50%
same,"current passed, % of 1 mM GABA current",[5]; 100 nM steroid,approximately 50%
same,"first peak maximal current (curve fit), % of maximal (1 mM GABA) current",[5],57 ± 5.3%
same,"second peak maximal current (curve fit), % of maximal (1 mM GABA) current",[5],48 ± 0.35%
"C[C@]12CC[C@@H](O)C[C@@H]1CC[C@@H]1[C@@H]2CC[C@]2(C)C(c3ccccc3)=CC[C@@H]12 [17-PA, (3α,5α)-17-phenylandrost-16-en-3-ol]",percent change of 100 nM ALLO induced current,"[6]; 1 μM 17-PA added with pCMBS, subsequent 100 nM ALLO current",−4 ± 8%
Picrotoxin [PTN],block of ALLO induced current,[7],80 ± 20% and ~80%
CC(C)c1cccc(C(C)C)c1O [propofol],response of α1S299C containing receptors compared with wild type,[8],near wild type
"CC(=O)[C@H]1CC[C@H]2[C@@H]3CC[C@H]4C[C@@H](O)CC[C@]4(C)[C@H]3CC[C@]12C [ISO, 3β-hydroxy-5α-pregnan-20-one]",block of ALLO induced current,"[9]; 5 nM ISO, 5 nM ALLO",90 ± 5% and 80–85%
same,block of ALLO induced current,"[9]; 5 nM ISO, 100 nM ALLO",86 ± 8% and 80–85%
same,block of ALLO induced current,"[9]; 100 nM ISO, 5 nM ALLO",73 ± 4%
"O=S(=O)(O)c1cc[c]([Hg][Cl])cc1 [pCMBS^−, para-chloromercuribenzenesulfonic acid]",reduction of subsequent ALLO induced current,[6]; subsequent 5 nM ALLO current,28 ± 8%
same,reduction of subsequent ALLO induced current,[6]; subsequent 100 nM ALLO current,22 ± 20%
same,inhibition of subsequent ALLO induced current,[6]; subsequent 5 nM ALLO current,63 ± 15%
same,inhibition of subsequent ALLO induced current,[6]; subsequent 100 nM ALLO current,63 ± 15%
same,decrease of ALLO current during co-application,[6]; 0.5 mM pCMBS applied simultaneously with 5 nM ALLO,7 ± 29%
same,reduction of ALLO current during co-application,[6]; 0.5 mM pCMBS co-applied with 100 nM ALLO,62 ± 17%
same,percent difference in subsequent ALLO current,"[6]; pCMBS added with 1 μM ISO, subsequent 100 nM ALLO current",−71 ± 10%
same,percent difference in subsequent ALLO current,"[6]; pCMBS co-applied with 100 nM ISO, subsequent 5 nM ALLO current",3 ± 14%
same,effect on subsequent ALLO currents,"[6]; pCMBS plus 5 nM ISO, subsequent 5 nM or 100 nM ALLO currents (not shown)",did not affect
same,effect on subsequent ALLO induced currents,[10],did not affect
same,accessibility of S299C to modification,[11],not accessible to be modified
NCCCC(=O)O [GABA],response of α1S299C containing receptors compared with wild type,[8],near wild type
"O=S(=O)(O)C1CCNCC1 [P4S, Piperidine-4-sulfonic acid]",Kd,[12],90 ± 18 µM
same,"maximal current induced, % of 1 mM GABA current","[12]; S299C, n of 3",58 ± 1.6%
same,Kd,[13],110 ± 37 µM
same,"maximal current induced, % of 1 mM GABA current","[13]; wt, n of 3",61 ± 3.7%
"CCO [ethanol, Ethanol]",shift of EC50 versus wt,[14],shift to a higher EC50
